The test system of test [1] is KK-Ay/Ta Jcl mice of a type 2 diabetic model. The test can be described thus: Example 2: non-fasting blood-sugar level in mice fed CE-2 feed with 1% by weight of test substance. Format: in vivo. As to conditions: for antidiabetic action (conclusion from Table 3): 10 days; for Blood-Sugar Level, 10th Day of the Test / Blood-Sugar Level, Initial Day of the Test: non-fasting, tail vein blood, mean ± standard error, n=5; for Blood-Sugar Level, Initial Day of the Test: initial day (baseline). An excerpt:
(§1) KK-Ay/Ta Jcl mice (Clea Japan, Inc.; male;,six weeks age) (15 mice) of a type 2 diabetic model were divided into three groups each comprising five mice and named group 1 to group 3.
(§2) The mice of the groups 1 to 3 were made free to take feed and water. A commercially available feed CE-2 (manufactured by Clea Japan, Inc.) was ingested to the mice of group 1. CE-2 to which 1% by weight of trans-4-hydroxy-L-proline ethyl ester (manufactured by Sanyo Chemical Laboratory Co., Ltd.; hereinafter, abbreviated as hydroxyproline ethyl ester) was added was ingested to the mice of group 2. CE-2 to which 1% by weight of trans-N,O-diacetyl-4-hydroxy-L-proline oleyl ester (manufactured by Nissei Kagaku; hereinafter, abbreviated as diacetylhydroxyproline oleyl ester) was added was ingested to the mice of group 3.
(§3) On the initial day of the test and on the 10th day thereafter, blood was collected from tail vein and blood-sugar level upon non-fasting was measured by a Medisafe Reader GR-101. The mice were fasted for 18 hours during the 10th day to the 11th day after the start of the test and whole blood was collected from descending vena cava to prepare serum. The serum-insulin level was measured by a Levi Insulin Kit Mouse-T. The value was shown by mean value±standard error (n=5) and statistic ratio of risk (p value) was determined by a t-test. With regard to the ingested amounts during the test periods, there was no significant difference among the groups 1 to 3.

The test system is the same in test [2]. The test can be described thus: Example 2: serum-insulin level after 18 hours fasting in mice fed CE-2 feed with 1% by weight of test substance. Format: in vivo. As to conditions: for Serum-Insulin Level: 11th day after 18 hours fasting, mean ± standard error, n=5.
Description: as §1, §2, §3

Test [3] has the same test system. The test can be described thus: Example 1: non-fasting blood-sugar level in mice fed CE-2 feed with 1% by weight of test substance. Type of test: in vivo.
Description: (§4) KK-Ay/Ta Jcl mice (Clea Japan, Inc.; male; six weeks age) (15 mice) of a type 2 diabetic model were divided into three groups each comprising five mice and named group 1 to group 3.
(§5) The mice of the groups 1 to 3 were made free to take feed and water. A commercially available feed CE-2 (manufactured by Clea Japan, Inc.) was ingested to the mice of group 1. CE-2 to which 1% by weight of trans-4-hydroxy-L-proline (manufactured by Kyowa Hakko Kogyo; hereinafter, abbreviated as hydroxyproline) was added was ingested to the mice of group 2. CE-2 to which 1% by weight of trans-N-acetyl-4-hydroxy-L-proline (manufactured by Kyowa Hakko Kogyo; hereinafter, abbreviated as N-acetylhydroxyproline) was added was ingested to the mice of group 3.
as §3, with “17th” for “10th”, “GR-101 (manufactured by Thermo Co.).” for “GR-101.”, “18th” for “11th”, “Mouse-T (manufactured by Shibayagi).” for “Mouse-T.”

Test [4] shares this test system. The test can be described thus: Example 1: serum-insulin level after 18 hours fasting in mice fed CE-2 feed with 1% by weight of test substance. Type of test: in vivo.
Description: as §4, §5
as §3, with “17th” for “10th”, “GR-101 (manufactured by Thermo Co.).” for “GR-101.”, “18th” for “11th”, “Mouse-T (manufactured by Shibayagi).” for “Mouse-T.”

Test [5] has the same test system. The test can be described thus: Example 3: blood-sugar level after oral glucose load in fasted mice. The following applies: 1 g/kg B.W. oral. Format: in vivo. Here is the method: KK-Ay/Ta Jcl mice (Clea Japan, Inc.; male; six weeks age) (16 mice) of a type 2 diabetic model were divided into 2 groups each comprising 8 mice and named group 1 and group 2.
After fasting for 18 hours, a physiological saline solution was orally administered to the mice of the group 1 while, to the mice of the group 2, 1 g/kg body weight (hereinafter, referred to as “B.W.”) of a 20% (w/v) aqueous solution of the N-acetylhydroxyproline (dissolved in a physiological saline solution) was orally administered. After 1 hour, 2 g/kg B.W. of a 40% (w/v) aqueous solution of glucose was orally administered to the mice of the groups 1 and 2 to load with sugar. Blood was collected from tail vein 60 minutes before (−60 minutes) administration of the aqueous glucose solution, upon the administration (0 minute) and 30 and 120 minutes after the administration and blood-sugar levels were measured by a Medisafe Reader GR-101. The value was shown by mean value±standard error (n=8) and statistic ratio of risk (p value) was determined by a t-test.

Test [6] relates to C2C12 cells. Nature of the test: Example 6: consumption of glucose of differentiated C2C12 cells (glucose concentration in supernatant). Format: cell-based, mouse. The following applies: for action on insulin effect on muscle (conclusion from Table 8): 100 μg/ml with insulin 0.1 μg/ml; for insulin concentration necessary to achieve the same result if insulin is used solely: relative to 0.1 μg/ml insulin used with 100 μg/ml test substance (1 μg/ml); for Glucose (concentration in supernatant after incubation): 3 days incubation, mean ± standard deviation, n=3. Here is the method: Each 1.2×10^5 C2C12 cells (cell strain derived from striated muscles of mouse; Dainippon Pharmaceutical Co., Ltd.) was inoculated on a 12-well plate and incubated at 37° C. for 3 days in a CO2 incubator (5% CO2/95% air) with a DMEM medium (manufactured by Invitrogen) to which 10% fetal bovine serum (manufactured by Invitrogen) was added. When the cells became confluent, the medium was exchanged to a DMEM medium to which 2% horse serum (manufactured by Invitrogen) was added and incubation was further conducted for 4 days to differentiate to myotubes. The medium was exchanged once again with a DMEM medium to which 2% horse serum was added and further incubated for 3 days after addition of bovine insulin (manufactured by Invitrogen) so as to make its final concentration 1 μg/ml or 0.1 μg/ml, a mixture of bovine insulin and trans-4-hydroxy-L-proline methyl ester (manufactured by Kokusan Chemical Co., Ltd.; hereinafter, referred to as hydroxyproline methyl ester) so as to make their final concentrations 0.1 μg/ml and 100 μg/ml, respectively or a mixture of bovine insulin and hydroxyproline ethyl ester so as to make their final concentrations 0.1 μg/ml and 100 μg/ml, respectively. Each of the supernatant liquids after the incubation was recovered and glucose concentration was measured by a Glucose CII Test Wako (manufactured by Wako Pure Chemical Industries, Ltd.) whereby consumption of glucose of the differentiated C2C12 cells was investigated. The values are shown by mean value±standard deviation (n=3, mg/l) and statistic ratio of risk (p value) was determined by a t-test.

[7] abbreviates: co-presence of 0.1 μg/ml of insulin and 100 μg/ml of test substance, vs insulin 0.1 μg/ml.
The mark [8] stands for this setting: test substance 100 μg/ml together with insulin 0.1 μg/ml.

In the case of `CCCCCCCC/C=C\CCCCCCCCOC(=O)[C@@H]1C[C@@H](OC(C)=O)CN1C(C)=O` (relative stereo) [diacetylhydroxyproline oleyl ester, trans-N,O-diacetyl-4-hydroxy-L-proline oleyl ester], in test [1], the “antidiabetic action (conclusion from Table 3)” value was “antidiabetic action”; the “Blood-Sugar Level, 10th Day of the Test” value is 215.2 ± 20.3 mg/dL; the “Blood-Sugar Level, Initial Day of the Test” value worked out at 241.0 ± 11.0 mg/dL. In test [2], the “antidiabetic action by improving insulin resistance (conclusion from Tables 3 and 4)” value was “show an antidiabetic action by improving the insulin resistance”; the “Serum-Insulin Level” value was 0.64 ± 0.12 ng/mL.

In the case of `CC(=O)N1C[C@H](O)C[C@H]1C(=O)O` [N-acetylhydroxyproline, trans-N-acetyl-4-hydroxy-L-proline], in test [3] (17 days), the “antidiabetic action (conclusion from Table 1)” value is “antidiabetic action”. In addition, the “Blood-Sugar Level, 17th Day of the Test” value in test [3] (non-fasting, tail vein blood, 17th day, mean ± standard error, n=5) was found to be 226.2 ± 12.9 mg/dL. Moreover, the “Blood-Sugar Level, Initial Day of the Test” value in test [3] (non-fasting, tail vein blood, initial day (baseline), mean ± standard error, n=5) is 241.0 ± 15.5 mg/dL. Further, the “antidiabetic action by improving insulin resistance (conclusion from Tables 1 and 2)” value in test [4] is on record as “show an antidiabetic action by improving the insulin resistance”. Moreover, the “Serum-Insulin Level” value in test [4] (18th day after 18 hours fasting, mean ± standard error, n=5) was found to be 0.69 ± 0.06 ng/mL. Further, the “antidiabetic action (conclusion from Table 5)” value in test [5] (glucose load) is on record as “antidiabetic action”. Besides, the “Blood-Sugar Level, 30 min” value in test [5] (30 minutes after glucose 2 g/kg, mean ± standard error, n=8) was found to be 407.1 ± 17.1 mg/dL. In addition, the “Blood-Sugar Level, −60 min” value in test [5] (60 minutes before glucose 2 g/kg (baseline, at dosing), mean ± standard error, n=8) stood at 159.4 ± 5.6 mg/dL. For the same molecule, in test [5] (120 minutes after glucose 2 g/kg, mean ± standard error, n=8), the “Blood-Sugar Level, 120 min” value was found to be 210.4 ± 14.4 mg/dL. The “Blood-Sugar Level, 0 min” value in test [5] (upon glucose administration 2 g/kg, mean ± standard error, n=8) was found to be 179.9 ± 11.6 mg/dL.

As to `CCOC(=O)[C@@H]1C[C@@H](O)CN1` [hydroxyproline ethyl ester, trans-4-hydroxy-L-proline ethyl ester], in test [1], the “antidiabetic action (conclusion from Table 3)” value is on record as “antidiabetic action”; the “Blood-Sugar Level, 10th Day of the Test” value amounted to 217.2 ± 11.3 mg/dL; the “Blood-Sugar Level, Initial Day of the Test” value worked out at 253.0 ± 9.5 mg/dL. For the same molecule, in test [2], the “antidiabetic action by improving insulin resistance (conclusion from Tables 3 and 4)” value is reported as “show an antidiabetic action by improving the insulin resistance”; the “Serum-Insulin Level” value came to 0.52 ± 0.10 ng/mL. Moreover, in test [6], the “action on insulin effect on muscle (conclusion from Table 8)” value is listed as “potentiate the action of insulin to the muscle” and the “insulin concentration necessary to achieve the same result if insulin is used solely” value is on record as “ten-fold”. Moreover, in test [6] (setting [7]), the “consumption of glucose of C2C12 cells” value is on record as “significantly increased”. In test [6] (setting [8]), this molecule gave a Glucose (concentration in supernatant after incubation) of 984 ± 29 mg/L.

Regarding `COC(=O)[C@@H]1C[C@@H](O)CN1` [hydroxyproline methyl ester, trans-4-hydroxy-L-proline methyl ester], in test [6], the “action on insulin effect on muscle (conclusion from Table 8)” value is given as “potentiate the action of insulin to the muscle” and the “insulin concentration necessary to achieve the same result if insulin is used solely” value was “ten-fold”. Besides, the “consumption of glucose of C2C12 cells” value in test [6] (setting [7]) is reported as “significantly increased”. Besides, the Glucose (concentration in supernatant after incubation) in test [6] (setting [8]) amounted to 926 ± 47 mg/L.

Turning to “Insulin: bovine insulin (manufactured by Invitrogen) [reference compound]”, the “consumption of glucose of C2C12 cells” value in test [6] (addition of 0.1 μg/ml of insulin, vs nothing added) is reported as “significantly promoted”. In addition, the entries for the “Glucose (concentration in supernatant after incubation)” value in test [6] (insulin 0.1 μg/ml alone) and in test [6] (insulin 1 μg/ml alone) were 1260 ± 15 *^1 mg/ and 942 ± 34 mg/L, respectively.

(Values after patent US20060173066A1, “Remedy for diabetes” (Kyowa Hakko Kogyo Co., Ltd., priority 2003, published 2006).)
